Data: patent US12612395B2, “Rocaglate derivatives and uses thereof” (TRUSTEES OF BOSTON UNIVERSITY, priority 2023, dated 2026)
Entries after “also recorded” stand apart in the source; their conditions may differ.

Assays:
[1] = target: eIF4A1:FAM-labeled poly r(AG)8 (Homo sapiens, UniProt P60842); experiment: Fluorescence polarization (FP) RNA clamping assay, eIF4A1; format: binding; conditions: compound 10 μM, 1 mM ATP
From the text: (§1) Given these observations, the inventors next sought to interrogate the effects of compound (−)-20 in secondary assays for both eIF4A and DDX3 engagement. […] While inherent differences between the FP assay conditions (e.g. probe affinity, protein mobility in FP buffer) preclude direct comparison of absolute AmP values across the two different proteins, the inventors noted that relative anti-CSC potencies for these compounds ((−)-7>(−)-5≈(−)-20) were similar to their relative degrees of clamping for DDX3X and eIF4A1. To follow up on these findings, the inventors performed in vitro translation experiments using a bicistronic mRNA reporter construct FF-HCV-Ren, where translation of the firefly luciferase (FF) cistron is cap-dependent, while translation of the Renilla luciferase (HCV-Ren) cistron is driven off an HCV-IRES, rendering translation of this cistron cap-independent.
Fluorescence Polarization (FP) Assays: Recombinant DDX3X or eIF4A1 (1.5 μM) were incubated with 10 nM FAM-labelled RNA probe and test compounds for 10 min in FP buffer (14.4 mM HEPES-KOH (pH 8), 108 mM NaCl, 1 mM MgCl2, 14.4% glycerol, 0.1% DMSO, 2 mM DTT, 1 mM ATP) at room temperature in black, low-volume 384 well plates (Corning 3820). FP readings were performed using a Pherastar FS microplate reader (BMG Labtech). Compounds were tested at a final concentration of 10 μM.^S9 For ADP+Pi conditions, ATP was substituted with 1 mM ADP and 1 mM Na2HPO4. To assess potency of complex formation, proteins were titrated in the presence of 10 nM probe, 50 μM compounds and 1 mM ATP. Experiments were run in three replicates, with each replicate employing the same master mix of protein, probe and buffer split across the four test conditions (DMSO+three test compounds). […] Data was analyzed using GraphPad Prism 8.4.0, with a “[Agonist] vs. normalized response” nonlinear regression model used to determine the EC50 for stimulation of helicase-RNA probe binding in the presence of test compound.

[2] = target: DDX3X:FAM-labeled poly r(AG)8 (Homo sapiens, UniProt O00571); experiment: Fluorescence polarization (FP) RNA clamping assay, DDX3X; format: binding; conditions: 1 mM ATP; for stimulation of DDX3X:(AG)8 complex formation in protein titration, in words: 50 μM rocaglate; for stimulation of DDX3X binding to RNA (change in polarization), in words: compound 10 μM
Chain of DDX3X:FAM-labeled poly r(AG)8 (O00571 whole entry, species assumed): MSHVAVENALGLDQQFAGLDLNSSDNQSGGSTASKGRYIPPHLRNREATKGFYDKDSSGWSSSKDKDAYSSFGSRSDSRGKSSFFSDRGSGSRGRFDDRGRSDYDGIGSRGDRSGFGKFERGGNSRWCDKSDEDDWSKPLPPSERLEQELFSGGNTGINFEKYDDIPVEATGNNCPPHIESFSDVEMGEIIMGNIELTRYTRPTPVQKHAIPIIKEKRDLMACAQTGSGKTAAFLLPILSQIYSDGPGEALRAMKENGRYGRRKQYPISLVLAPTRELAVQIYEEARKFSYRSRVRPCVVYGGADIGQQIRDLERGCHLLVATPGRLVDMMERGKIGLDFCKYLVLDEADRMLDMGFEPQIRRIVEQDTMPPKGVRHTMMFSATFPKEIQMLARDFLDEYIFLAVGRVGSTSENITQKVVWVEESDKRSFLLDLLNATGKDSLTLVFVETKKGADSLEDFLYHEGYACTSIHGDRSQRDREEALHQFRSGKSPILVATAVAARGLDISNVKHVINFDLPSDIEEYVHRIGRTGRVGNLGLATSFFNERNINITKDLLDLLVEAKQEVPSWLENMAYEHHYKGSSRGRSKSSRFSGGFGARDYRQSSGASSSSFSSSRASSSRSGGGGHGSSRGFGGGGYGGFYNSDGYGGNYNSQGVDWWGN
From the text: as §1
Fluorescence Polarization (FP) Assays: Recombinant DDX3X or eIF4A1 (1.5 μM) were incubated with 10 nM FAM-labelled RNA probe and test compounds for 10 min in FP buffer (14.4 mM HEPES-KOH (pH 8), 108 mM NaCl, 1 mM MgCl2, 14.4% glycerol, 0.1% DMSO, 2 mM DTT, 1 mM ATP) at room temperature in black, low-volume 384 well plates (Corning 3820). FP readings were performed using a Pherastar FS microplate reader (BMG Labtech). Compounds were tested at a final concentration of 10 μM.^S9 For ADP+Pi conditions, ATP was substituted with 1 mM ADP and 1 mM Na2HPO4. To assess potency of complex formation, proteins were titrated in the presence of 10 nM probe, 50 μM compounds and 1 mM ATP. Experiments were run in three replicates, with each replicate employing the same master mix of protein, probe and buffer split across the four test conditions (DMSO+three test compounds). Within each replicate, data was normalized such that the highest response across the four tested conditions (as raw AmP counts) was used as 100% relative change in polarization, and the lowest response across the four tested conditions was used as 0% relative change in polarization. Data was analyzed using GraphPad Prism 8.4.0, with a “[Agonist] vs. normalized response” nonlinear regression model used to determine the EC50 for stimulation of helicase-RNA probe binding in the presence of test compound.

[3] = tested on: eIF4A paralogs (eIF4A1); experiment: PISA assay in GBM0308 cell lysates, eIF4A; format: binding, human; conditions: GBM0308 lysate, compound 10 μM, AMP-PNP and (AG)8 RNA added
From the text: Derivatization-free target identification using a modified proteome integral solubility alteration (PISA) assay. The inventors next pursued proteome-wide target identification to better understand the target profiles of CSC-selective rocaglates. To enable cross-compound comparisons of target engagement, the inventors opted to use the Proteome Integral Solubility Alteration (PISA) assay,^29 a derivative of the mass spectrometry-based Cellular Thermal Shift Assay (MS-CETSA). In MS-CETSA,^30,31 target engagement is inferred through proteome-wide analysis of compound-induced changes to protein thermal stability; proteins with a shift in their half-maximal thermal denaturation temperature upon compound treatment are flagged as potential targets. The PISA assay obviates the need for MS-CETSA-derived thermal denaturation curves through curve integration by pooling of individual temperature points into a single “integral” sample for each treatment condition, thereby increasing throughput (FIG. 9). In contrast to MS-CETSA (which relies on curve comparisons), PISA determinations are performed by simply comparing soluble protein abundance levels between compound- and DMSO-treated samples. Importantly, protein fold-change measurements in PISA experiments generally scale with the thermal shift derived from CETSA experiments, and the magnitude of a thermal shift can inform on relative affinity between compounds and individual targets.^30,32-25 Maximal stability changes are protein-specific,^36 however, precluding estimations of preference for one target over another. Thus, PISA allows for simultaneous target profiling and comparisons of binding affinity between different compounds within a given target.
Of note, we also detected stabilization of DDX3Y, a paralog which shares >90% sequence similarity with DDX3X.
PISA assay in GBM0308 cell lysates: The PISA assay was performed in lysates as described by Gaetani and coworkers^S2 with slight modification. Pelleted GBM0308 cells were resuspended in ice-cold lysis buffer (1×PBS pH 7.4, 2 mM MgCl2, 0.5 mM AMP-PNP, 1 μM (AG)8 RNA, HALT protease inhibitor cocktail EDTA-free) and subjected to three freeze-thaw cycles with liquid nitrogen to extract lysate proteins. Thawing was performed at room temperature until ˜80% thawed, then completed on ice. Lysate was clarified by centrifugation for 10 minutes at 20,000 RCF and 4° C., transferred to a fresh Eppendorf tube, then centrifuged again for 10 minutes at 20,000 RCF and 4° C. to ensure removal of debris. Lysate concentration was determined using a Pierce BCA Protein Assay Kit and adjusted to 2.0 mg/mL in lysis buffer. Lysate was mixed 1:1 with a 2× solution of test compound or DMSO in lysis buffer, gently aspirated to ensure proper mixing, and incubated at room temperature for 10 minutes. […]

Chain of eIF4A1:FAM-labeled poly r(AG)8 (P60842 whole entry, species assumed): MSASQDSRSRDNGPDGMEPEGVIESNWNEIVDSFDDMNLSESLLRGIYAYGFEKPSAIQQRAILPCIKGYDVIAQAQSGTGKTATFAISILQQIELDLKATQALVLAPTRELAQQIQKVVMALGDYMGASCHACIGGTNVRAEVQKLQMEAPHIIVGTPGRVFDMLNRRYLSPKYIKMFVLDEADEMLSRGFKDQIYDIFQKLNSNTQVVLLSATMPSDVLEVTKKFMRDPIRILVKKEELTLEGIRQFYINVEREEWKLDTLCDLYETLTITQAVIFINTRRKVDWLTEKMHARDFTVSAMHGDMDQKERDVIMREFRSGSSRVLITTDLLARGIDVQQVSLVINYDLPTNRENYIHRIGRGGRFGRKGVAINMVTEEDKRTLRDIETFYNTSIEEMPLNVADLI

Structure (SMILES)	stimulation of eIF4A1 binding to RNA (change in polarization), in words [1]	stimulation of DDX3X:(AG)8 complex formation in protein titration, in words [2]	thermal stabilization of eIF4A paralogs (PISA), in words [3]	stimulation of DDX3X binding to RNA (change in polarization), in words [2]
CONC(=O)[C@H]1[C@@H](O)[C@@]2(O)c3c(OC)cc(OC)cc3O[C@@]2(c2ccc(OC)cc2)[C@@H]1c1ccccc1 [(−)-5, CR-1-31b, reference compound]	strongly stimulated	significantly less efficacious	stabilization	
CONC(=O)[C@H]1[C@@H](O)[C@@]2(O)c3c(OC)cc(OC)cc3O[C@@]2(c2ccc(Br)cc2)[C@@H]1c1ccccc1 [(−)-7, SDS-1-021]	strongly stimulated; also recorded: strongest clamping	clearly favored; also recorded: significant enhancement of binding stimulation	stabilized	stimulated RNA binding to a greater extent
COc1cc(OC)c2c(c1)O[C@@]1(c3ccc(Br)cc3)[C@H](c3ccccc3)[C@@H](C(=O)NS(=O)(=O)N(C)C)[C@@H](O)[C@@]21O [(−)-20, (1R,2R,3S,3aR,8bS)-3a-(4-bromophenyl)-N—(N,N-dimethylsulfamoyl)-1,8b-dihydroxy-6,8-dimethoxy-3-phenyl-2,3,3a,8b-tetrahydro-1H-cyclopenta[b]benzofuran-2-carboxamide]	strongly stimulated	significant enhancement of binding stimulation	stabilized	stimulated RNA binding to a greater extent
